Laboratory results taken from patent US12642798B2, “Aripiprazole prodrug composition” (ALKERMES PHARMA IRELAND LIMITED, priority 2014, dated 2026).

Experiment: Particle size analysis by laser light scattering (Horiba)
Format: physicochemical
Conditions: solid particulate form prior to milling
Description: The term “particle size” or “volume based particle size” or “volume based particle size distribution” as used herein is equivalent to and also referred to as the Dv50 or D50 and means that at least about 50% of the aripiprazole prodrug particles have a diameter of less than the size specified. The aforementioned terms are used interchangeably herein. For example a volume based particle size (Dv50) of less than 1000 nm, means that 50% of the particle population has a diameter of less than 1000 nm when measured by static or dynamic light scattering techniques known to those skilled in the art. […] Unless otherwise specified, all particle sizes are specified in terms of volume based measurements and are measured by laser light scattering/diffraction. Particle sizes are then determined based on Mie scattering theory. More specifically, unless otherwise specified, volume based particle size (Dv50) is determined using a Horiba LA-950 standard model laser particle size analyser. Deionized water or water with a small quantity (for example 0.1% w/w) of surface stabilizer (for example polysorbate 20) is used as the sizing medium unless otherwise specified. […]
The particle size of the present composition may be measured using techniques such as light scattering with either water or a dilute surface stabilizer solution as the diluent. […]

**Q.** With `CCCCCC(=O)OCN1C(=O)CCc2ccc(OCCCCN3CCN(c4cccc(Cl)c4Cl)CC3)cc21` [aripiprazole cavoxil, (7-(4-(4-(2,3-Dichlorophenyl)piperazin-1-yl)butoxy)-2-oxo-3,4-dihydroquinolin-1(2H)yl)methyl hexanoate] as the compound, how does the “particle size (Dv50) prior to milling” value read?
**A.** greater than 8 microns

**Q.** With `CCCCCCCCCCCC(=O)OCN1C(=O)CCc2ccc(OCCCCN3CCN(c4cccc(Cl)c4Cl)CC3)cc21` [aripiprazole lauroxil, Dodecanoic acid, [7-[4-[4-(2,3-dichlorophenyl)-1-piperazinyl]butoxy]-3,4-dihydro-2-oxo-1(2H)-quinolinyl]methyl ester] as the compound, how does the “particle size (Dv50) prior to milling” value read?
**A.** greater than 10 microns
